Assay results taken from patent US20250114367A1, “METHOD OF TREATING HAIR LOSS DISORDERS” (Sun Pharmaceutical Industries, Inc., priority 2023, published 2025).
Read-outs that look alike come from different tables or passages of the source.

Legend:
[1] = system: adult subjects with moderate to severe AA; assay: Phase III trial: Hair Satisfaction Patient Reported Outcome (SPRO); format: in vivo, human; set-up: key to SPRO responders, treatment difference: Common Risk Difference (Mantel-Haenszel): difference in proportion of responders (satisfied or very satisfied); conditions: for SPRO Responders: No / SPRO Responders: Yes ('Very satisfied' or 'Satisfied') / SPRO Responses: 1 = Very Satisfied / SPRO Responses: 2 = Satisfied / SPRO Responses: 3 = Neither Satisfied Nor Dissatisfied / SPRO Responses: 4 = Dissatisfied / SPRO Responses: 5 = Very Dissatisfied / percentage of subjects with a ≥2 point change from baseline in SPRO / proportion of SPRO responders (very satisfied or satisfied) / percentage of SPRO responders: non-missing data; for SPRO responders, treatment difference: Common Risk Difference (Mantel-Haenszel): MI with MAR assumption
Excerpt: The SPRO is a single-item questionnaire answered by the subject and designed to measure how satisfied Alopecia Areata subjects are with their hair at the time of the assessment. Subjects answer questions on a scale of 1 to 5, representing “Very satisfied” to “Very dissatisfied.” Satisfaction categories 1-5 of the scale were defined as follows: 1=“Very Satisfied”; 2=“Satisfied”; 3=“Neither Satisfied nor Dissatisfied”; 4=Dissatisfied”; and 5=“Very Dissatisfied”.
The results of the SPRO was analyzed in three different ways: 1) the percentage of responders, 2) the change from baseline, and 3) the percentage of subjects achieving a ≥2.0 point change from baseline.
A Phase III trial was conducted to assess the efficacy and safety of CTP-543 in adult subjects with moderate to severe AA. Approximately 440 adult male and female subjects 18 to 65 years of age, inclusive, with moderate to severe AA participated in the study. Subjects with definitive diagnosis of AA, and at least 50% hair loss, as defined by a SALT score ≥50, who met all of the inclusion criteria and none of the exclusion criteria participated in the study.
The Screening Period lasted up to 28 days prior to initiation of study drug. […] Randomization was stratified by scalp hair loss into 1 of the following 2 categories: 1) partial scalp hair loss (SALT ≥50 and <95), 2) complete or near complete scalp hair loss (SALT ≥95).
The key secondary efficacy endpoints were the percentage of responders (defined as “satisfied” or “very satisfied”) on the Hair Satisfaction Patient Reported Outcome (SPRO) scale at Week 24, 20, 16, 12, and 8.
Additional secondary efficacy endpoints included the following: • Relative change in SALT scores from baseline at Weeks 4, 8, 12, 16, 20, and 24. • Percentage of responders (defined as “much improved” or “very much improved”) using the Clinical Global Impression of Improvement (CGI-I) at Weeks 12, 16, 20, and 24. • Percentage of responders (defined as “much improved” or “very much improved”) using the Patient Global Impression of Improvement (PGI-I) at Weeks 12, 16, 20, and 24. • Change from baseline in the Clinical Global Impression of Severity (CGI-S) at Weeks 12, 16, 20, and 24. • Change from baseline in the Patient Global Impression of Severity (PGI-S) at Weeks 12, 16, 20, and 24. • Change from baseline on the Brigham Eyebrow Tool for Alopecia (BETA) score at Weeks 12 and 24. • Change from baseline on the Brigham Eyelash Tool for Alopecia (BELA) score at Weeks 12 and 24. • Percentage of subjects achieving at least a 75% relative reduction in SALT score from baseline at Weeks 12 and 24. • Percentage of subjects achieving at least a 90% relative reduction in SALT score from baseline at Weeks 12 and 24. • Percentage of responders (defined as “satisfied” or “very satisfied”) on the SPRO scale at Weeks 12, 16, and 20. • Change from baseline in the SPRO scale at Weeks 12, 16, 20, and 24. • Percentage of subjects achieving a ≥2-point change from baseline in the SPRO scale at Weeks 12, 16, 20, and 24. • Change from baseline on the individual items of the Hair Quality Patient Reported Outcome (QPRO) scale at Weeks 12, 16, 20, and 24. • Change from baseline in the depression scale of the Hospital Anxiety and Depression Scale (HADS) at Week 24. • Change from baseline in the anxiety scale of the HADS at Week 24. • Percentage of subjects achieving an absolute SALT score of ≤20 at Week 4. • Percentage of subjects achieving an absolute SALT score of ≤10 at Week 24 […]

[2] = Renal impairment study: PK after a single 12 mg oral dose of CTP-543; format: in vivo, human; conditions: for Tmax / AUC(0-t) / AUC(0-inf) / Cmax / Vd/F / half-life: human, plasma, po, 12 mg; for Tmax / AUC(0-t) / AUC(0-inf) / Cmax / Vd/F / half-life / CL/F (geometric mean) / Clast (geometric mean): single 12 mg oral dose of CTP-543, outlier excluded; for AUC(0-t): read-out: AUC0-Tlast (geometric mean); for AUC(0-inf): read-out: AUC0-inf (geometric mean); for Cmax: read-out: Cmax (geometric mean); for Vd/F: read-out: Vz/F (geometric mean); for half-life: read-out: terminal elimination half-life (geometric mean) (converted)
Excerpt: The study enrolled 8 subjects in the normal renal function cohort, and 8 subjects in the moderate impaired renal function cohort.
The primary endpoint of this study was single dose PK exposure parameters: Cmax, AUC(0-Tlast), and AUC(0-∞).
The secondary endpoints of this study were: • Adverse Events, clinical laboratory findings, physical examinations, ECGs, and vital signs. • Other PK parameters, such as, but not limited to: Tmax, λz, t1/2, CL/F, and Vz/F.
All subjects had samples collected for PK.
PK parameters were determined using non-compartmental analysis (NCA) methods based on individual plasma concentration-time data for all PK analytes.

[3] = compared to healthy control subjects
[4] = moderate renal impairment N = 7

[2H]C1([2H])C([C@@H](CC#N)n2cc(-c3ncnc4[nH]ccc34)cn2)C([2H])([2H])C([2H])([2H])C1([2H])[2H] [CTP-543, (R)-3-(4-(7H-pyrrolo[2,3-d]pyrimidin-4-yl)-1H-pyrazol-1-yl)-3-(cyclopentyl-2,2,3,3,4,4,5,5-d8) propanenitrile]
SPRO score, LS mean change from baseline ([1]; Week 12, 8 mg BID): −1.6
SPRO score, LS mean change from baseline ([1]; Week 12, 12 mg BID): −1.7
SPRO score, LS mean change from baseline ([1]; Week 16, 8 mg BID): −1.6
SPRO score, LS mean change from baseline ([1]; Week 16, 12 mg BID): −1.7
SPRO score, LS mean change from baseline ([1]; Week 20, 8 mg BID): −1.5
SPRO score, LS mean change from baseline ([1]; Week 20, 12 mg BID): −1.8
SPRO score, LS mean change from baseline ([1]; Week 24, 8 mg BID): −1.6
SPRO Responders: No ([1]; Week 24, 8 mg BID (N = 249)): 122 (53.5) n (%)
SPRO Responders: Yes ('Very satisfied' or 'Satisfied') ([1]; Week 24, 8 mg BID (N = 249)): 106 (46.5) n (%)
SPRO Responses: 1 = Very Satisfied ([1]; Week 24, 8 mg BID (N = 249)): 40 (17.5) n (%)
SPRO Responses: 2 = Satisfied ([1]; Week 24, 8 mg BID (N = 249)): 66 (38.9) n (%)
SPRO Responses: 3 = Neither Satisfied Nor Dissatisfied ([1]; Week 24, 8 mg BID (N = 249)): 34 (14.9) n (%)
SPRO Responses: 4 = Dissatisfied ([1]; Week 24, 8 mg BID (N = 249)): 34 (14.9) n (%)
SPRO Responses: 5 = Very Dissatisfied ([1]; Week 24, 8 mg BID (N = 249)): 54 (23.7) n (%)
SPRO responders, treatment difference: Common Risk Difference (Mantel-Haenszel) ([1]; Week 24, 8 mg BID compared to Placebo): 0.45
percentage of subjects with a ≥2 point change from baseline in SPRO ([1]; Week 24, 8 mg BID): 52.6%
proportion of SPRO responders (very satisfied or satisfied) ([1]; Week 24, 8 mg BID): 46.5%
SPRO score, LS mean change from baseline ([1]; Week 24, 12 mg BID): −1.8
SPRO Responders: No ([1]; Week 24, 12 mg BID (N = 127)): 58 (48.3) n (%)
SPRO Responders: Yes ('Very satisfied' or 'Satisfied') ([1]; Week 24, 12 mg BID (N = 127)): 62 (51.7) n (%)
SPRO Responses: 1 = Very Satisfied ([1]; Week 24, 12 mg BID (N = 127)): 24 (20.0) n (%)
SPRO Responses: 2 = Satisfied ([1]; Week 24, 12 mg BID (N = 127)): 38 (31.7) n (%)
SPRO Responses: 3 = Neither Satisfied Nor Dissatisfied ([1]; Week 24, 12 mg BID (N = 127)): 23 (19.2) n (%)
SPRO Responses: 4 = Dissatisfied ([1]; Week 24, 12 mg BID (N = 127)): 18 (15.0) n (%)
SPRO Responses: 5 = Very Dissatisfied ([1]; Week 24, 12 mg BID (N = 127)): 17 (14.2) n (%)
SPRO responders, treatment difference: Common Risk Difference (Mantel-Haenszel) ([1]; Week 24, 12 mg BID compared to Placebo): 0.49
percentage of subjects with a ≥2 point change from baseline in SPRO ([1]; Week 24, 12 mg BID): 61.7%
proportion of SPRO responders (very satisfied or satisfied) ([1]; Week 24, 12 mg BID): 51.7
percentage of SPRO responders ([1]; week 12, 8 mg BID): 43.2%
percentage of subjects with a ≥2 point change from baseline in SPRO ([1]; week 12, 8 mg BID): 50.4%
percentage of SPRO responders ([1]; week 12, 12 mg BID): 41.0%
percentage of subjects with a ≥2 point change from baseline in SPRO ([1]; week 12, 12 mg BID): 59.0%
percentage of SPRO responders ([1]; week 16, 8 mg BID): 41.0%
percentage of subjects with a ≥2 point change from baseline in SPRO ([1]; week 16, 8 mg BID): 52.6%
percentage of SPRO responders ([1]; week 16, 12 mg BID): 45.1%
percentage of subjects with a ≥2 point change from baseline in SPRO ([1]; week 16, 12 mg BID): 57.4%
percentage of SPRO responders ([1]; week 20, 8 mg BID): 40.1%
percentage of subjects with a ≥2 point change from baseline in SPRO ([1]; week 20, 8 mg BID): 50.4%
percentage of SPRO responders ([1]; week 20, 12 mg BID): 52.5%
percentage of subjects with a ≥2 point change from baseline in SPRO ([1]; week 20, 12 mg BID): 63.6%
effect of moderate renal impairment on Cmax [2, 3]: without altering Cmax
increase of plasma AUC by moderate renal impairment [2, 3]: approximately 24%
Tmax [2, 4]: 0.5 h
AUC(0-t) [2, 4]: 1040 ng·h/mL
AUC(0-inf) [2, 4]: 1050 ng·h/mL
Cmax [2, 4]: 207 ng/mL
Vd/F [2, 4]: 72.1 L
half-life [2, 4]: 4.36 h
Tmax ([2]; normal renal function N = 8): 0.71 h
AUC(0-t) ([2]; normal renal function N = 8): 836 ng·h/mL
AUC(0-inf) ([2]; normal renal function N = 8): 843 ng·h/mL
Cmax ([2]; normal renal function N = 8): 199 ng/mL
Vd/F ([2]; normal renal function N = 8): 85.6 L
half-life ([2]; normal renal function N = 8): 4.17 h
CL/F (geometric mean) [2, 4]: 11.3 L/h
Clast (geometric mean) [2, 4]: 0.977 ng/mL
CL/F (geometric mean) ([2]; normal renal function N = 8): 14.2 L/h
Clast (geometric mean) ([2]; normal renal function N = 8): 0.698 ng/mL
